# Test results: US20240300987A1, “TRAP1 INHIBITOR AND USE THEREOF” (SMARTIN BIO INC., priority 2021, published 2024)
# Columns and labels:
# [1] = tested on: HIF1α; assay: Drug activity assay using MIO-M1 HRE/GFP cell line under hypoxia; assay type: cell-based; settings: for IC50: HIF1α inhibitory activity in MIO-M1 cells, 1% O2 24 hours; for Activity compared to that of SMX: HIF1α inhibition, relative to SMX of the same table
# Description: After transfection (jetPRIME kit) of MIO-M1 Müller cells with 5HRE/GFP plasmid (Addgene, #46926), the cells transfected with the plasmid were selected using 1 mg/ml of G418 (Neomycin), a selectable marker. A stable cell line was constructed by selecting cells, growing in a colony form, from single cells. The prepared MIO-M1-HRE/GFP stable cell line was dispensed into a 96-well plate and treated with drugs at different concentrations the next day. After being exposed to a hypoxic environment (1% O2) for 24 hours, the GFP (Ex/Em: 488/507) fluorescence signal was measured using a SYNERGY NEO microplate reader (BioTek Instrument). The relative fluorescence value was calculated on the basis of 100% of the negative control group.
# [2] = biological target: T1, human full-length TRAP1 protein (Homo sapiens, UniProt Q12931); assay: Fluorescence polarization (FP) analysis using SB-TM2 probe (client-binding site); settings: for IC50: FP analysis using SB-TM2; for Activity compared to that of SMX: TRAP1 binding, relative to SMX of the same table
# T1 construct: containing human full-length TRAP1 protein (400 nM); hexahistidine tag followed by TEV protease cleavage site (N, cleaved yes); made in house; host or cells: E. coli BL21 (DE3)
# T1 sequence (Q12931 60-704): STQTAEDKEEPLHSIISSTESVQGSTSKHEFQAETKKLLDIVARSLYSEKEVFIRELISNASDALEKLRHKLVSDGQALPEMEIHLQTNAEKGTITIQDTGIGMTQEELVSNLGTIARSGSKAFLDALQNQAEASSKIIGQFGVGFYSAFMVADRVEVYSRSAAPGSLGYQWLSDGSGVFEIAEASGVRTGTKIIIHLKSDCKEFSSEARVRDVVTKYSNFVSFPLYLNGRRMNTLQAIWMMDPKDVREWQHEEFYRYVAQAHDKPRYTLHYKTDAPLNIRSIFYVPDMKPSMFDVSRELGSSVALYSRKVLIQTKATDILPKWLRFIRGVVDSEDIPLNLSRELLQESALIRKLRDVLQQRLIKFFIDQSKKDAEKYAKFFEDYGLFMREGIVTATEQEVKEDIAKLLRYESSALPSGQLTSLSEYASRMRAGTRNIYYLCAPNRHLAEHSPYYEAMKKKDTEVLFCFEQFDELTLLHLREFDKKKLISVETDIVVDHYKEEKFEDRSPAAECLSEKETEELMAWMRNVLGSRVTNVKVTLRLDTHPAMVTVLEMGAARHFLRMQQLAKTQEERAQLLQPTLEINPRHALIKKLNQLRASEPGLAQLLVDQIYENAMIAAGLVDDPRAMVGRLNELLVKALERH
# Description: The substance to be analyzed (at a final volume of 100 μL) was added to FP buffer ([…], 2.7 mM KCl, 4.3 mM Na2HPO4, 1.4 mM KH2PO4 (pH 7.3), 1 mM DTT, 2 mM MgCl2, and 0.1 mg/mL BSA) containing human full-length TRAP1 protein (400 nM) and SB-TM2 probe (100 nM) and then reacted at room temperature for 1 hour (96-well plate). Using a SYNERGY NEO microplate reader, FP was measured at an excitation wavelength set to 440 nm and an emission wavelength set to 500 nm.
# [3] = biological target: T2, TRAP1 (Homo sapiens, UniProt Q12931); assay: ATPase activity assay (PiColorLock Gold Phosphate Detection Kit); assay type: biochemical; design: hexahistidine tag followed by TEV protease cleavage site (N, cleaved yes); made in house; host or cells: E. coli BL21 (DE3); settings: result in words
# T2 sequence (Q12931 60-704): T1 sequence (Q12931 60-704)
# Description: The ATPase activity of TRAP1 was measured using the PiColorLock Gold Phosphate Detection Kit (Abcam). Then, 0.5 µM TRAP1 (wild-type or mutation) was pre-incubated along with inhibitors at various concentrations for 30 minutes and then incubated with 0.2 mM ATP at 37° C. for 3 hours in ATPase activity assay buffer containing 50 mM Tris-HCl, 20 mM KCl, and 6 mM MgCl (pH 7.4). Next, 20 µL of a mixture of a PiColorLock Gold reagent and an accelerator (100:1) was added to each sample (100 μL). After 5 minutes of incubation, 10 μL of a stabilizer was added to stop color development. Absorbance was measured at 620 nm using a microplate reader (Synergy NEO, BioTek). The background signal was normalized by subtracting the absorbance of unreacted samples.
# [4] = Table 3, other synthetic compounds
# [5] = MIO-M1, 24 h, Table 6, alkyl-TPPs
# [6] = MIO-M1, 24 h, Table 8, other synthetic compounds
# [7] = MIO-M1, 24 h, Table 9, other synthetic compounds
# [8] = Table 4, other synthetic compounds
# [9] = MIO-M1, 24 h, Table 7, TPP-antioxidant conjugates
# [10] = Table 2, antioxidant-TPP conjugates
SMILES,"IC50 [2, 4]","IC50 [1, 5]","IC50 ([2]; Table 1, alkyl-TPPs)",Activity compared to that of SMX ([2]; Table 1),"IC50 [1, 7]",Activity compared to that of SMX ([1]; Table 8),Activity compared to that of SMX ([1]; Table 6),Activity compared to that of SMX ([1]; Table 9),further results
"COc1c(Br)c(C)c(CCCCCCCCCC[P+](c2ccccc2)(c2ccccc2)c2ccccc2)c(OC)c1OC [SB-U011, (10-(3-Bromo-4,5,6-trimethoxy-2-methylphenyl)decyl)triphenylphosphonium]",684 ± 72.9 nM,,,,,6.02,,,"IC50 ([1]; Table 8, other synthetic compounds): 85.3 ± 8.8 nM; Activity compared to that of SMX ([2]; Table 3): 1.156; TRAP1 ATPase activity with increasing concentration [3]: did not show a tendency that the ATPase activity decreased in a concentration-dependent manner"
"COc1c(C)c(CCCCCCCCCC[P+](c2ccccc2)(c2ccccc2)c2ccccc2)c(Br)c(OC)c1OC [SB-U012, (10-(2-Bromo-3,4,5-trimethoxy-6-methylphenyl)decyl)triphenylphosphonium]",601 ± 90.6 nM,,,,,2.90,,,"IC50 [1, 6]: 177 ± 8.8 nM; Activity compared to that of SMX ([2]; Table 3): 1.315"
"CC1=C(CCCCCCCCCC[P+](c2ccccc2)(c2ccccc2)c2ccccc2)C(=O)c2ccccc2C1=O [SB-K001, (10-(3-Methyl-1,4-dioxo-1,4-dihydronaphthalen-2-yl)decyl)triphenylphosphonium]",,,,,55.5 ± 3.3 nM,,,5.03,"IC50 [2, 8]: 166 ± 23 nM; Activity compared to that of SMX ([2]; Table 4): 2.45"
"CC1=C(C)C(=O)C(CCCCCCCCCC[P+](c2ccccc2)(c2ccccc2)c2ccccc2)=CC1=O [SkQ1, (10-(4,5-Dimethyl-3,6-dioxocyclohexa-1,4-diene-1-yl)decyl)triphenylphosphonium, reference compound]",,,,,,,,,"IC50 [1, 9]: 183 ± 9.1 nM; Activity compared to that of SMX ([1]; Table 7): 1.79; IC50 [2, 10]: 696 ± 55.4 nM"
"c1ccc([P+](CCCCCCCCCCC2CCCCC2)(c2ccccc2)c2ccccc2)cc1 [SB-B002, (10-Cyclohexyldecyl)triphenylphosphonium chloride]",,,,,22.3 ± 1 nM,,,12.51,
"COc1c(Br)c(C)c(CCCCCCCCCC[P+](c2ccccc2)(c2ccccc2)c2ccccc2)c(OC)c1OC [SB-U005, (10-(3-Bromo-4,5,6-trimethoxy-2-methylphenyl)decyl)triphenylphosphonium]",385 ± 83.5 nM,,,,,3.92,,,"IC50 [1, 6]: 131 ± 9.1 nM"
"c1ccc(CCCCCCCCCC[P+](c2ccccc2)(c2ccccc2)c2ccccc2)cc1 [SB-B001, Triphenyl(10-phenyldecyl)phosphonium]",,,,,94.7 ± 13.2 nM,,,2.95,"IC50 [2, 8]: 2970 ± 1050 nM; Activity compared to that of SMX ([2]; Table 4): 0.14"
"CC1(C)CC(NC(=O)C[P+](c2ccccc2)(c2ccccc2)c2ccccc2)CC(C)(C)N1[O] [Mito-TEMPO, reference compound]",,,,,,,,,"TRAP1 binding capacity (competitive binding with SB-TM2, CBS of TRAP1) ([2]; result in words): do not exhibit TRAP1 binding capacity"
"CC(C)NCCCn1c(Sc2cc3c(cc2I)OCO3)nc2c(N)ncnc21 [PU-H71, reference compound]",,,,,,,,,TRAP1 ATPase activity with increasing concentration [3]: ATPase activity decreased with the increasing concentration
"COc1c(O)c(C)c(CCCCCCCCCC[P+](c2ccccc2)(c2ccccc2)c2ccccc2)c(Br)c1OC [SB-U009, (10-(2-Bromo-5-hydroxy-3,4-dimethoxy-6-methylphenyl)decyl)triphenylphosphonium]",909 ± 136 nM,,,,,2.69,,,"IC50 [1, 6]: 191 ± 23.6 nM; Activity compared to that of SMX ([2]; Table 3): 0.8701"
"COc1c(C)c(CCCCCCCCCC[P+](c2ccccc2)(c2ccccc2)c2ccccc2)c(OC)c(OC)c1OC [SB-U014, Triphenyl(10-(2,3,4,5-tetramethoxy-6-methylphenyl)decyl)phosphonium]",,,,,69.4 ± 3.1 nM,,,4.02,"IC50 [2, 8]: 805 ± 99.4 nM"
"COC1=C(OC)C(=O)C(CCCCCCCCCC[P+](c2ccccc2)(c2ccccc2)c2ccccc2)=C(C)C1=O [SMX, (10-(4,5-Dimethoxy-2-methyl-3,6-dioxocyclohexadien-1-yl)decyl)triphenylphosphonium, reference compound]",791 ± 51.2 nM,468 ± 15.1 nM,623 ± 37.5 nM,1,279 ± 17 nM,1,1,1,"IC50 [1, 9]: 327 ± 22.9 nM; IC50 [1, 6]: 514 ± 55.2 nM; Activity compared to that of SMX ([1]; Table 7): 1; IC50 [2, 10]: 824 ± 51.2 nM; Activity compared to that of SMX ([2]; Table 2): 1; Activity compared to that of SMX ([2]; Table 3): 1; IC50 [2, 8]: 406 ± 38.9 nM; Activity compared to that of SMX ([2]; Table 4): 1"

# Continued, in another order:
"IC50 [2, 4]","IC50 [1, 5]","IC50 ([2]; Table 1, alkyl-TPPs)",Activity compared to that of SMX ([2]; Table 1),"IC50 [1, 7]",SMILES,Activity compared to that of SMX ([1]; Table 8),Activity compared to that of SMX ([1]; Table 6),Activity compared to that of SMX ([1]; Table 9),further results
,314 ± 57.8 nM,693 ± 57.8 nM,0.90,,"CCCCCCCCCC[P+](c1ccccc1)(c1ccccc1)c1ccccc1 [TPP-10, Decyltriphenylphosphonium]",,1.49,,
,1430 nM,18800 ± 5390 nM,0.03,,"CCCCCC[P+](c1ccccc1)(c1ccccc1)c1ccccc1.[Br-] [TPP-6, hexyltriphenylphosphonium bromide, reference compound]",,0.33,,
,643 ± 258 nM,2570 ± 258 nM,0.24,,"CCCCCCCC[P+](c1ccccc1)(c1ccccc1)c1ccccc1 [TPP-8, Octyltriphenylphosphonium]",,0.73,,"TRAP1 binding capacity (competitive binding with SB-TM2, CBS of TRAP1) ([2]; result in words): competitive binding with SB-TM2 was confirmed to be enabled; TRAP1 binding capacity (competitive binding with SB-TM2, CBS of TRAP1) ([2]; result in words, listed as octyl-TPP): competitive binding to SB-TM2 is confirmed to be enabled"
,111 ± 35.4 nM,377 ± 35.4 nM,1.65,,"CCCCCCCCCCCC[P+](c1ccccc1)(c1ccccc1)c1ccccc1 [TPP-12, Dodecyltriphenylphosphonium]",,4.21,,binding capacity compared to that of SMX (MitoQ) ([2]; result in words): superior to that of SMX
